Measured values published in patent US20250161216A1, “CATIONIC LIPID ANALOGUES, COMPOSITIONS AND USES THEREOF” (GUANGZHOU LIDE BIOMEDICINE TECHNOLOGY CO., LTD., priority 2022, published 2025).

System: C57BL/6 mice
Assay: In vivo expression level of Luciferase-mRNA delivered by intravenous injection (bioluminescence imaging)
Conditions: mRNA-loaded nanoparticles, intravenous (tail vein), 5 μg Luciferase-mRNA, 6 hours; for Fluorescence intensity of liver: compounds of Example 1
Description: Luciferase-mRNA was used as an mRNA model; and the cationic lipid analogues of Examples 1-5 were used to prepare drug-loaded nanoparticles according to the method of Example 6.
200 μL of nanoparticles containing 5 μg Luciferase-mRNA or the drug-loaded nanoparticles prepared above were injected into tail veins of 6-8 week-old C57BL/6 mice, and 200 μL of 1×PBS solution containing 3 mg D-Luciferin potassium salt was intraperitoneally injected into the mice 6 hours later. After waiting for 10 minutes, an in vivo expression level of the mRNA was evaluated by bioluminescence imaging.

CCCCCCCC/C=C\CCCCCCCC(=O)N(CCCN(C)C)C(C(=O)NCCN(C)CCNC(=O)C(C(C)C)N(CCCN(C)C)C(=O)CCCCCCC/C=C\CCCCCCCC)C(C)C (stereo not shown) [A1I4R2C18-1]
Bioluminescence intensity (compounds of Example 2): 8.80E+02

CCCCC/C=C\C/C=C\CCCCCCCC(=O)N(CCCN(C)C)C(C(=O)NCCN(C)CCNC(=O)C(C(C)C)N(CCCN(C)C)C(=O)CCCCCCC/C=C\C/C=C\CCCCC)C(C)C (stereo not shown) [A1I4R2C18-2]
Fluorescence intensity of spleen (compounds of Example 2): 3.18E+03

CCCCCCCCCCCCCCCCCC(=O)N(CCCN(C)C)C(C(=O)NCCN(C)CCNC(=O)C(C(C)C)N(CCCN(C)C)C(=O)CCCCCCCCCCCCCCCCC)C(C)C (stereo not shown) [A1I4R2C18]
Fluorescence intensity of spleen (compounds of Example 2): 1.79E+04

CCCCCCCC/C=C\CCCCCCCC(=O)N(CCN1CCCCCC1)C(C(=O)NCCN(C)CCNC(=O)C(C(C)C)N(CCN1CCCCCC1)C(=O)CCCCCCC/C=C\CCCCCCCC)C(C)C (stereo not shown) [A1I4R13C18-1]
Fluorescence intensity of spleen (compounds of Example 2): 2.67E+03

CCCCC/C=C\C/C=C\CCCCCCCC(=O)N(CCN1CCCCCC1)C(C(=O)NCCN(C)CCNC(=O)C(C(C)C)N(CCN1CCCCCC1)C(=O)CCCCCCC/C=C\C/C=C\CCCCC)C(C)C (stereo not shown) [A1I4R13C18-2]
Fluorescence intensity of spleen (compounds of Example 2): 2.85E+04

CCCCCCCCCCCCCCCCCC(=O)N(CCN1CCCCCC1)C(C(=O)NCCN(C)CCNC(=O)C(C(C)C)N(CCN1CCCCCC1)C(=O)CCCCCCCCCCCCCCCCC)C(C)C (stereo not shown) [A1I4R13C18]
Bioluminescence intensity (compounds of Example 2): 5.76E+02

CCCCCCCCCCCCCCCCCC(=O)N(CCC)C(C(=O)NCCN(C)CCNC(=O)C(C(C)C)N(CCC)C(=O)CCCCCCCCCCCCCCCCC)C(C)C (stereo not shown) [A1I4R21C18]
Fluorescence intensity of spleen (compounds of Example 2): 3.46E+04

CCCCCCCCCCCC(=O)N(CCO)C(C(=O)NCCN(C)CCNC(=O)C(C(C)C)N(CCO)C(=O)CCCCCCCCCCC)C(C)C (stereo not shown) [A1I4R22C12]
Fluorescence intensity of spleen (compounds of Example 2): 3.90E+03

CCCCCCCCCCCCCC(=O)N(CCO)C(C(=O)NCCN(C)CCNC(=O)C(C(C)C)N(CCO)C(=O)CCCCCCCCCCCCC)C(C)C (stereo not shown) [A1I4R22C14]
Fluorescence intensity of spleen (compounds of Example 2): 2.30E+03

CCCCCCCCCCCCCCCC(=O)N(CCO)C(C(=O)NCCN(C)CCNC(=O)C(C(C)C)N(CCO)C(=O)CCCCCCCCCCCCCCC)C(C)C (stereo not shown) [A1I4R22C16]
Fluorescence intensity of spleen (compounds of Example 2): 2.30E+03

CCCCCCCCCCCCCCCCCC(=O)N(CCO)C(C(=O)NCCN(C)CCNC(=O)C(C(C)C)N(CCO)C(=O)CCCCCCCCCCCCCCCCC)C(C)C (stereo not shown) [A1I4R22C18]
Fluorescence intensity of spleen (compounds of Example 2): 1.10E+05

CCCCCCSSCCC(=O)N(CCO)C(C(=O)NCCN(C)CCNC(=O)C(C(C)C)N(CCO)C(=O)CCSSCCCCCC)C(C)C (stereo not shown) [A1I4R22S11]
Fluorescence intensity of spleen (compounds of Example 2): 1.00E+03

CCCCCCCCSSCCC(=O)N(CCO)C(C(=O)NCCN(C)CCNC(=O)C(C(C)C)N(CCO)C(=O)CCSSCCCCCCCC)C(C)C (stereo not shown) [A1I4R22S13]
Fluorescence intensity of spleen (compounds of Example 2): 5.90E+03

CCCCCCCCCCSSCCC(=O)N(CCO)C(C(=O)NCCN(C)CCNC(=O)C(C(C)C)N(CCO)C(=O)CCSSCCCCCCCCCC)C(C)C (stereo not shown) [A1I4R22S15]
Fluorescence intensity of spleen (compounds of Example 2): 4.10E+03

CCCCCCCCCCCCSSCCC(=O)N(CCO)C(C(=O)NCCN(C)CCNC(=O)C(C(C)C)N(CCO)C(=O)CCSSCCCCCCCCCCCC)C(C)C (stereo not shown) [A1I4R22S17]
Fluorescence intensity of spleen (compounds of Example 2): 1.80E+04

CCCCCCCCCCCCCCSSCCC(=O)N(CCO)C(C(=O)NCCN(C)CCNC(=O)C(C(C)C)N(CCO)C(=O)CCSSCCCCCCCCCCCCCC)C(C)C (stereo not shown) [A1I4R22S19]
Fluorescence intensity of spleen (compounds of Example 2): 2.50E+04

CCCCCCCC(=O)N(CCO)C(C(=O)NCCN(CCNC(=O)C(C(C)C)N(CCO)C(=O)CCCCCCC)CCNC(=O)C(C(C)C)N(CCO)C(=O)CCCCCCC)C(C)C (stereo not shown) [A1I5R22C8]
Fluorescence intensity of spleen (compounds of Example 3): 1.50E+05

CCCCCCCCCC(=O)N(CCO)C(C(=O)NCCN(CCNC(=O)C(C(C)C)N(CCO)C(=O)CCCCCCCCC)CCNC(=O)C(C(C)C)N(CCO)C(=O)CCCCCCCCC)C(C)C (stereo not shown) [A1I5R22C10]
Fluorescence intensity of spleen (compounds of Example 3): 3.00E+05

CCCCCCCCCCCC(=O)N(CCO)C(C(=O)NCCN(CCNC(=O)C(C(C)C)N(CCO)C(=O)CCCCCCCCCCC)CCNC(=O)C(C(C)C)N(CCO)C(=O)CCCCCCCCCCC)C(C)C (stereo not shown) [A1I5R22C12]
Fluorescence intensity of spleen (compounds of Example 3): 2.96E+06

CCCCCCCCCCCCCCCC(=O)N(CCO)C(C(=O)NCCN(CCNC(=O)C(C(C)C)N(CCO)C(=O)CCCCCCCCCCCCCCC)CCNC(=O)C(C(C)C)N(CCO)C(=O)CCCCCCCCCCCCCCC)C(C)C (stereo not shown) [A1I5R22C16]
Fluorescence intensity of spleen (compounds of Example 3): 4.10E+05

CCCCC/C=C\C/C=C\CCCCCCCC(=O)N(CCO)C(C(=O)NCCN(CCNC(=O)C(C(C)C)N(CCO)C(=O)CCCCCCC/C=C\C/C=C\CCCCC)CCNC(=O)C(C(C)C)N(CCO)C(=O)CCCCCCC/C=C\C/C=C\CCCCC)C(C)C (stereo not shown) [A1I5R22C18-2]
Fluorescence intensity of spleen (compounds of Example 3): 6.90E+05

CCCCCCCCCCCCCCCCCC(=O)N(CCO)C(C(=O)NCCN(CCNC(=O)C(C(C)C)N(CCO)C(=O)CCCCCCCCCCCCCCCCC)CCNC(=O)C(C(C)C)N(CCO)C(=O)CCCCCCCCCCCCCCCCC)C(C)C (stereo not shown) [A1I5R22C18]
Fluorescence intensity of spleen (compounds of Example 3): 1.10E+05

CCCCCCSSCCC(=O)N(CCO)C(C(=O)NCCN(CCNC(=O)C(C(C)C)N(CCO)C(=O)CCSSCCCCCC)CCNC(=O)C(C(C)C)N(CCO)C(=O)CCSSCCCCCC)C(C)C (stereo not shown) [A1I5R22S11]
Fluorescence intensity of spleen (compounds of Example 3): 1.30E+05

CCCCCCCCCCCCSSCCC(=O)N(CCO)C(C(=O)NCCN(CCNC(=O)C(C(C)C)N(CCO)C(=O)CCSSCCCCCCCCCCCC)CCNC(=O)C(C(C)C)N(CCO)C(=O)CCSSCCCCCCCCCCCC)C(C)C (stereo not shown) [A1I5R22S17]
Fluorescence intensity of spleen (compounds of Example 3): 6.40E+05

CCCCCCCCCCCCCCSSCCC(=O)N(CCO)C(C(=O)NCCN(CCNC(=O)C(C(C)C)N(CCO)C(=O)CCSSCCCCCCCCCCCCCC)CCNC(=O)C(C(C)C)N(CCO)C(=O)CCSSCCCCCCCCCCCCCC)C(C)C (stereo not shown) [A1I5R22S19]
Fluorescence intensity of spleen (compounds of Example 3): 1.80E+06

CCCCCCCCCCCCN(C(=O)CO)C(C(=O)NCCN(CCNC(=O)C(C(C)C)N(CCCCCCCCCCCC)C(=O)CO)CCNC(=O)C(C(C)C)N(CCCCCCCCCCCC)C(=O)CO)C(C)C (stereo not shown) [A1I5R50C21]
Fluorescence intensity of spleen (compounds of Example 3): 3.60E+06

CCCCCCCC/C=C\CCCCCCCC(=O)N(CCN(C)C)C(C(=O)NCCCCCCCCCCCCCCCCCC)C(C)C (stereo not shown) [A1I18R1C18-1]
Fluorescence intensity of liver: 5.08E+05

CCCCC/C=C\C/C=C\CCCCCCCC(=O)N(CCN(C)C)C(C(=O)NCCCCCCCCCCCCCCCCCC)C(C)C (stereo not shown) [A1I18R1C18-2]
Fluorescence intensity of liver: 2.27E+05

CC/C=C\C/C=C\C/C=C\CCCCCCCC(=O)N(CCN(C)C)C(C(=O)NCCCCCCCCCCCCCCCCCC)C(C)C (stereo not shown) [A1I18R1C18-3]
Fluorescence intensity of liver: 1.88E+06

CCCCCCCCCCCCCCCCCCNC(=O)C(C(C)C)N(CCN(C)C)C(=O)CCCCCCCCCCCCCCCCC (stereo not shown) [A1I18R1C18]
Fluorescence intensity of liver: 6.37E+03

CCCCCCCCCCCCC#CC#CCCCCCCCCC(=O)N(CCN(C)C)C(C(=O)NCCCCCCCCCCCCCCCCCC)C(C)C (stereo not shown) [A1I18R1C23]
Fluorescence intensity of liver: 9.51E+05

CCCCCCCC/C=C\CCCCCCCC(=O)N(CCCN(C)C)C(C(=O)NCCCCCCCCCCCCCCCCCC)C(C)C (stereo not shown) [A1I18R2C18-1]
Fluorescence intensity of liver: 2.63E+04

CC/C=C\C/C=C\C/C=C\CCCCCCCC(=O)N(CCCN(C)C)C(C(=O)NCCCCCCCCCCCCCCCCCC)C(C)C (stereo not shown) [A1I18R2C18-3]
Fluorescence intensity of liver: 6.77E+04

CCCCCCCCCCCCC#CC#CCCCCCCCCC(=O)N(CCCN(C)C)C(C(=O)NCCCCCCCCCCCCCCCCCC)C(C)C (stereo not shown) [A1I18R2C23]
Fluorescence intensity of liver: 2.70E+05

CCCCCCCC/C=C\CCCCCCCC(=O)N(CCCN(CC)CC)C(C(=O)NCCCCCCCCCCCCCCCCCC)C(C)C (stereo not shown) [A1I18R3C18-1]
Fluorescence intensity of liver: 9.29E+03

CCCCC/C=C\C/C=C\CCCCCCCC(=O)N(CCCN(CC)CC)C(C(=O)NCCCCCCCCCCCCCCCCCC)C(C)C (stereo not shown) [A1I18R3C18-2]
Fluorescence intensity of liver: 1.48E+05

CC/C=C\C/C=C\C/C=C\CCCCCCCC(=O)N(CCCN(CC)CC)C(C(=O)NCCCCCCCCCCCCCCCCCC)C(C)C (stereo not shown) [A1I18R3C18-3]
Fluorescence intensity of liver: 2.22E+04

CCCCCCCCCCCCCCCCCCNC(=O)C(C(C)C)N(CCCN(CC)CC)C(=O)CCCCCCCCCCCCCCCCC (stereo not shown) [A1I18R3C18]
Fluorescence intensity of liver: 3.91E+03

CCCCCCCCCCCCC#CC#CCCCCCCCCC(=O)N(CCCN(CC)CC)C(C(=O)NCCCCCCCCCCCCCCCCCC)C(C)C (stereo not shown) [A1I18R3C23]
Fluorescence intensity of liver: 7.67E+04

CCCCCCCC/C=C\CCCCCCCC(=O)N(CCCN(C)C)C(C(=O)NCCN(C)CCNC(=O)C(C(CC)CCCC)N(CCCN(C)C)C(=O)CCCCCCC/C=C\CCCCCCCC)C(CC)CCCC (stereo not shown) [A4I4R2C18-1]
Fluorescence intensity of spleen (compounds of Example 2): 1.13E+03

CCCCC/C=C\C/C=C\CCCCCCCC(=O)N(CCCN(C)C)C(C(=O)NCCN(C)CCNC(=O)C(C(CC)CCCC)N(CCCN(C)C)C(=O)CCCCCCC/C=C\C/C=C\CCCCC)C(CC)CCCC (stereo not shown) [A4I4R2C18-2]
Fluorescence intensity of spleen (compounds of Example 2): 1.86E+04

CCCCCCCCCCCCCCCCCC(=O)N(CCCN(C)C)C(C(=O)NCCN(C)CCNC(=O)C(C(CC)CCCC)N(CCCN(C)C)C(=O)CCCCCCCCCCCCCCCCC)C(CC)CCCC (stereo not shown) [A4I4R2C18]
Fluorescence intensity of spleen (compounds of Example 2): 2.24E+03

CCCCCCCC/C=C\CCCCCCCC(=O)N(CCN1CCCCCC1)C(C(=O)NCCN(C)CCNC(=O)C(C(CC)CCCC)N(CCN1CCCCCC1)C(=O)CCCCCCC/C=C\CCCCCCCC)C(CC)CCCC (stereo not shown) [A4I4R13C18-1]
Fluorescence intensity of spleen (compounds of Example 2): 1.59E+03

CCCCC/C=C\C/C=C\CCCCCCCC(=O)N(CCN1CCCCCC1)C(C(=O)NCCN(C)CCNC(=O)C(C(CC)CCCC)N(CCN1CCCCCC1)C(=O)CCCCCCC/C=C\C/C=C\CCCCC)C(CC)CCCC (stereo not shown) [A4I4R13C18-2]
Fluorescence intensity of spleen (compounds of Example 2): 1.19E+04

CCCCCCCCCCCCCCCCCC(=O)N(CCN1CCCCCC1)C(C(=O)NCCN(C)CCNC(=O)C(C(CC)CCCC)N(CCN1CCCCCC1)C(=O)CCCCCCCCCCCCCCCCC)C(CC)CCCC (stereo not shown) [A4I4R13C18]
Fluorescence intensity of spleen (compounds of Example 2): 2.79E+03

CCCCCCCC/C=C\CCCCCCCC(=O)N(CCC)C(C(=O)NCCN(C)CCNC(=O)C(C(CC)CCCC)N(CCC)C(=O)CCCCCCC/C=C\CCCCCCCC)C(CC)CCCC (stereo not shown) [A4I4R21C18-1]
Fluorescence intensity of spleen (compounds of Example 2): 3.02E+04
